One series concerns CHO/CYP1B1 cells. The following applies: Chinese hamster.
Series [1] concerns human liver microsomes (HLM). As to the kind of experiment: Pooled human liver microsome (HLM) fragmentation of coumarin model prodrugs. The class given is in vitro ADME. The following applies: 60 μl HLM in 1.5 ml, pH 7.4, 37° C.; mean ± standard deviation of three. For orientation: Liver microsomes are vesicles of endoplasmic reticulum, rich in cytochrome P450 enzymes.
Method: (§1) Supersomal™ enzyme metabolism was started by adding a stock solution of prodrug dissolved in DMSO to give a final concentration of 10 μmol dm^−3 prodrug and 0.5% DMSO. HLM screening used 60 microlitre microsomes, 100 μmol dm^−3 NADPH, in 10 mmol dm^−3 potassium phosphate buffer at pH 7.4 and 37° C., in 1.5 ml total reaction volume.
(§2) Therefore, enzymatic hydroxylation of the hetero-aromatic trigger and resultant linker fragmentation can be monitored in real time by release of the coumarin anion by kinetic fluorimetry.
(§3) Release of the coumarin anion indicative of linker fragmentation was monitored using a 1 cm path length fluorescence cell in a Cary Eclipse kinetic flourimeter with excitation and emission slits set at 5 nm. Coumarin anion release from compounds of the invention was detected at the excitation wavelength λex=350 nm and the emission wavelength λem=450 nm. Change in fluorescence intensity was quantified against a linear calibration plot of fluorescence intensity versus coumarin concentration (0 to 3.5 μmol dm^−3) in 10 mmol dm^−3 potassium phosphate buffer at pH 7.4 using the same instrument settings as for enzyme metabolism.
The target of series [2] is T1, CYP1B1 (Homo sapiens, UniProt Q16678).
T1 sequence (Q16678 1-543): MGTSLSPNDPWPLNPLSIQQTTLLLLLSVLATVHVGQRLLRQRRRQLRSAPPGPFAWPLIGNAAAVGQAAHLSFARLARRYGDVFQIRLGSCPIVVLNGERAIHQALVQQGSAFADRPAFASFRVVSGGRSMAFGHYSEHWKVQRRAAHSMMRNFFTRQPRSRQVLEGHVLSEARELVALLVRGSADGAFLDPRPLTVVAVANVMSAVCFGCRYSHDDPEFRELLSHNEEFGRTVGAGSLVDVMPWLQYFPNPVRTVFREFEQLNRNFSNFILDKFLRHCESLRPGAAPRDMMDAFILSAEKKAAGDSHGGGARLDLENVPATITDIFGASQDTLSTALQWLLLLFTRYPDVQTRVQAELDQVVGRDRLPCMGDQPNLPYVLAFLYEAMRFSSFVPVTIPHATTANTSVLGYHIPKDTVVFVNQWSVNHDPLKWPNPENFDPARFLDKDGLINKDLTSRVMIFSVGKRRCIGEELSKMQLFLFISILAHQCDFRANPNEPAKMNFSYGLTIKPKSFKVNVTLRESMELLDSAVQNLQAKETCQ
The experiment in a line: Supersomal CYP1B1 fragmentation of coumarin model prodrugs (kinetic fluorimetry). The class given is biochemical. Set-up: purchased BD Gentest, Oxford, UK. The following applies: for Specific fragmentation activity CYP1B1: 10 μmol dm^−3 prodrug, 10 pmol enzyme, pH 7.4, 37° C., mean ± standard deviation of three.
Method: as §1, §2, §3

In a further series the target is T2, CYP1A2 (Homo sapiens, UniProt P05177).
T2 construct: purchased BD Gentest, Oxford, UK
T2 sequence (P05177 2-516 limits assumed): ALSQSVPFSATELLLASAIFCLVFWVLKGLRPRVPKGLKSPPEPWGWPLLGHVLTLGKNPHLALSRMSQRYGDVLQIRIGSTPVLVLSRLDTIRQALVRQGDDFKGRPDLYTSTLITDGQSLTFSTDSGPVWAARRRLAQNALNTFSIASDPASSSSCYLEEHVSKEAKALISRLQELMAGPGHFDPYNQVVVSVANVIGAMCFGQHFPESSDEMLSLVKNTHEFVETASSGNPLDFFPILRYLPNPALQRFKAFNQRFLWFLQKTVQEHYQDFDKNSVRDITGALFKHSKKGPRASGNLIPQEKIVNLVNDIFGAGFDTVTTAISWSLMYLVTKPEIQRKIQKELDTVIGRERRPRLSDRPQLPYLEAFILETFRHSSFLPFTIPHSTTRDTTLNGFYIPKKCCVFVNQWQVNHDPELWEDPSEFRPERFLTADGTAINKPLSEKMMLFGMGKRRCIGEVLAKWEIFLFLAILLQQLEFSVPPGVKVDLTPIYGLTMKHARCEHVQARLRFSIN
As to the kind of experiment: Supersomal CYP1A2 fragmentation of coumarin model prodrugs (kinetic fluorimetry). The class given is biochemical. Conditions: 10 μmol dm^−3 prodrug, 10 pmol enzyme, pH 7.4, 37° C.; mean ± standard deviation of three.

In another series the test system is UT-SCC-14 tumour cells. As to the kind of experiment: Cytotoxicity in primary HNSCC tumour cell line UT-SCC-14 (MTS assay). Conditions: Homo sapiens, 72 h, read-out: cytotoxicity IC50 UT-SCC-14. A general note: Tetrazolium assays rely on reduction of a dye to a coloured formazan, in cell work by metabolically active cells.
Series [3] deals with T1, CYP1B1. The experiment in a line: CYP1B1 substrate prediction model (Gaussian Kernel weighted k-NN). The following applies: predicted versus actual.
Series [4] addresses T1, CYP1B1. The experiment in a line: in vitro.
The target in a further series is T3, CYP1A1 (Homo sapiens, UniProt P04798).
T3 sequence (P04798 1-512): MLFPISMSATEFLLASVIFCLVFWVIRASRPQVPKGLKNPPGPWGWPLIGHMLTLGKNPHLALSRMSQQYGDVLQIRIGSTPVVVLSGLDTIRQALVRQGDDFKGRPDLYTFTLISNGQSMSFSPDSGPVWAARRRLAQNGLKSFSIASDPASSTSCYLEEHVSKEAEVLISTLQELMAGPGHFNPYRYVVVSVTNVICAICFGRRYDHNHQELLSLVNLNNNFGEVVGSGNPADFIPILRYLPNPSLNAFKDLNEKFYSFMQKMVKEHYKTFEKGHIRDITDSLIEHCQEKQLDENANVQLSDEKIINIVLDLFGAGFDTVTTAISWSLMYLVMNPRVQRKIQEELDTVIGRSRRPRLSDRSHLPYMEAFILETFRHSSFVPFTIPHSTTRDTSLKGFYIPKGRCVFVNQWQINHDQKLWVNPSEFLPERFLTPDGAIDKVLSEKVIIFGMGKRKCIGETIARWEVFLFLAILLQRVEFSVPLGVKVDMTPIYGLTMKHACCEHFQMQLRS
As to the kind of experiment: Supersomal CYP1A1 fragmentation of coumarin model prodrugs (kinetic fluorimetry). The class given is biochemical. Also on record: purchased BD Gentest, Oxford, UK. The following applies: 10 μmol dm^−3 prodrug, 10 pmol enzyme, pH 7.4, 37° C.; mean ± standard deviation of three.

Method for CYP1A1: as §1, §2, §3
Method for CYP1A2: as §1, §2, §3
Method for UT-SCC-14 tumour cells: A UT-SCC-14 tumour cell suspension at 2000 cells per well on a 96-well plate and if necessary add fresh media to give a total volume per well of 100 μl. The cells were allowed to attach for 4 h in an incubator. […] The final concentration of ethanol 0.2% was found not to effect the growth characteristics of the UT-SCC-14 cell line. The UT-SCC-14 cells were incubated with test compound for 72 h after which time all aspirated and replaced with 100 μl of fresh medium to compensate for the loss of medium due to evaporation. The cells were incubated with 20 μl of the MTS assay reagent for 1.5 h and the absorbance per well at 510 nm measured using a plate reader. The mean absorbance and standard deviation for each test compound concentration was calculated versus a series of controls including (a) cells plus medium, (b) cell plus medium containing ethanol 0.2%, (c) medium alone, and (d) medium containing ethanol 0.2% and a range of test compound concentrations from 0 to 100 μmol dm^−3.

A word on the IC50: it is the concentration that gives 50% inhibition. Regarding `O=P(O)(NCCCl)NCCCl` [Cl-IPM, N,N-bis(2-chloro-ethyl)phosphoramide, reference compound], in the series with CHO/CYP1B1 cells, the IC50 was 8 ± 5 nM.

With `Cc1cc(=O)oc2cc(OCc3cc4ccccc4o3)ccc12` [SU010A, 7-(benzofuran-2-ylmethoxy)-4-methyl-2H-chromen-2-one], in series [1], the “Specific fragmentation activity HLM” value is recorded as 22.8 ± 0.69 pmol coumarin min^−1 pmol cytochrome P450^−1. Also, the “Specific fragmentation activity CYP1B1” value at CYP1B1 [2] is on record as 5.19 ± 0.15 pmol coumarin min^−1 pmol cytochrome P450^−1.

Turning to `Cc1cc(=O)oc2cc(NC(=O)OCc3cc4ccccc4o3)ccc12` [SU018-03, benzofuran-2-ylmethyl 4-methyl-2-oxo-2H-chromen-7-ylcarbamate], the “Specific fragmentation activity CYP1A2” value on CYP1A2 is on record as “no release”. In addition, in series [1], the “Specific fragmentation activity HLM” value is given as “no release”. Moreover, the “Specific fragmentation activity CYP1B1” value on CYP1B1 [2] was “no release”.

Regarding `COc1cc(OC)c2oc(COC(=O)Nc3ccn(C4OC(CO)C(O)C4(F)F)c(=O)n3)cc2c1` (centres unmarked) [SU048-04, (5,7-dimethoxybenzofuran-2-yl)methyl 1-(3,3-difluoro-4-hydroxy-5-(hydroxymethyl)-tetrahydrofuran-2-yl)-2-oxo-1,2-dihydropyrimidin-4-ylcarbamate], in the series with UT-SCC-14 tumour cells, the IC50 is 940 ± 20 nM.

Take `Cc1cc(=O)oc2cc(OCc3cc4cc(F)ccc4o3)ccc12` [VG015-05, 7-((5-fluorobenzofuran-2-yl)methoxy)-4-methyl-2H-chromen-2-one]: on CYP1B1 [2], the “Specific fragmentation activity CYP1B1” value is recorded as 3.16 ± 0.28 pmol coumarin min^−1 pmol cytochrome P450^−1.

As usually defined, the inhibition is the relative decrease from the control value, in per cent. In the case of `Cc1cc(=O)oc2cc(OCc3cc4cc(F)cc(F)c4o3)ccc12` [VG016-05, 7-((5,7-difluorobenzofuran-2-yl)methoxy)-4-methyl-2H-chromen-2-one], the “Specific fragmentation activity CYP1A2” value on CYP1A2 is recorded as “no release”. The “Specific fragmentation activity HLM” value in series [1] is “no release”. The “% CYP1B1 substrate inhibition accuracy” value on CYP1B1 [3] is listed as 82%. Further, on CYP1B1 [4], the inhibition at 0.5 mmol dm^−3 was determined as 2.45 ± 0.32%. Further, the “Specific fragmentation activity CYP1A1” value at CYP1A1 was “no release”. On CYP1B1 [2], the “Specific fragmentation activity CYP1B1” value is “no release”.

Consider `COc1ccc2oc(COc3ccc4c(C)cc(=O)oc4c3)cc2c1` [VG027-05, 7-((5-methoxybenzofuran-2-yl)methoxy)-4-methyl-2H-chromen-2-one], for which the “Specific fragmentation activity HLM” value in series [1] is given as 8.98 ± 0.49 pmol coumarin min^−1 pmol cytochrome P450^−1. Further, the “Specific fragmentation activity CYP1B1” value at CYP1B1 [2] is listed as 11.83 ± 0.15 pmol coumarin min^−1 pmol cytochrome P450^−1.

In the case of `Cc1cc(=O)oc2cc(OCc3cc4cc(Cl)ccc4o3)ccc12` [VG028-05, 7-((5-chlorobenzofuran-2-yl)methoxy)-4-methyl-2H-chromen-2-one], the “Specific fragmentation activity CYP1B1” value at CYP1B1 [2] is listed as 6.67 ± 0.01 pmol coumarin min^−1 pmol cytochrome P450^−1.

As for `COc1cccc2cc(COc3ccc4c(C)cc(=O)oc4c3)oc12` [VG029-05, 7-((7-methoxybenzofuran-2-yl)methoxy)-4-methyl-2H-chromen-2-one], at CYP1B1 [2], the “Specific fragmentation activity CYP1B1” value is listed as 6.45 ± 1.15 pmol coumarin min^−1 pmol cytochrome P450^−1.

For `COc1ccc2oc(COC(=O)Nc3ccc4c(C)cc(=O)oc4c3)cc2c1` [VG032-05, (5-methoxybenzofuran-2-yl)methyl 4-methyl-2-oxo-2H-chromen-7-ylcarbamate], the “Specific fragmentation activity CYP1A2” value at CYP1A2 was “no release”. The “Specific fragmentation activity HLM” value in series [1] is 3.21 ± 0.25 pmol coumarin min^−1 pmol cytochrome P450^−1. Besides, the “Specific fragmentation activity CYP1B1” value at CYP1B1 [2] was 1.53±0.09 pmol coumarin min^−1 pmol cytochrome P450^−1. Also, the “CYP1B1 specific fragmentation activity, fold lower than VG027-05” value at CYP1B1 [2] (carbamate linker versus ether linker) is reported as approximately 6 fold.

With `Cc1cc(=O)oc2cc(OCc3cc4cc(Br)ccc4o3)ccc12` [VG035-04, 7-((5-bromobenzofuran-2-yl)methoxy)-4-methyl-2H-chromen-2-one], the “Specific fragmentation activity CYP1B1” value on CYP1B1 [2] is listed as 8.85 ± 0.28 pmol coumarin min^−1 pmol cytochrome P450^−1.

Turning to `COc1cc(OC)c2oc(COc3ccc4c(C)cc(=O)oc4c3)cc2c1` [VG035-05, 7-((5,7-dimethoxybenzofuran-2-yl)methoxy)-4-methyl-2H-chromen-2-one], on CYP1A2, the “Specific fragmentation activity CYP1A2” value is listed as “no release”. Also, the “Specific fragmentation activity HLM” value in series [1] is listed as “no release”. Further, on CYP1B1 [3], the “% CYP1B1 substrate inhibition accuracy” value is 96%. Further, at CYP1B1 [4], the inhibition at 0.5 mmol dm^−3 is 97.34 ± 0.32%. Besides, the “Specific fragmentation activity CYP1A1” value on CYP1A1 is “no release”. The “Specific fragmentation activity CYP1B1” value on CYP1B1 [2] is listed as 13.65±1.00 pmol coumarin min^−1 pmol cytochrome P450^−1.

With `Cc1cc(=O)oc2cc(NC(=O)OCc3cc4cc(Br)ccc4o3)ccc12` [VG036-05, (5-bromobenzofuran-2-yl)methyl 4-methyl-2-oxo-2H-chromen-7-ylcarbamate], the “Specific fragmentation activity CYP1A2” value at CYP1A2 is reported as “no release”. Also, the “Specific fragmentation activity HLM” value in series [1] is listed as “no release”. Besides, the “Specific fragmentation activity CYP1A1” value on CYP1A1 was “no release”. Besides, the “Specific fragmentation activity CYP1B1” value at CYP1B1 [2] is recorded as “no release”.

On to `COc1cc(OC)c2oc(COC(=O)Nc3ccc4c(C)cc(=O)oc4c3)cc2c1` [VG041-05, (5,7-dimethoxybenzofuran-2-yl)methyl 4-methyl-2-oxo-2H-chromen-7-ylcarbamate], for which the “Specific fragmentation activity CYP1A2” value at CYP1A2 is listed as “no release”. In series [1], the “Specific fragmentation activity HLM” value was “no release”. The “Specific fragmentation activity CYP1B1” value on CYP1B1 [2] is on record as “no release”.

Consider `CCOc1ccc2nc3ccc(=O)cc-3oc2c1` [ethoxyresorufin, 7-ethoxyresorufin], for which, on CYP1B1 [3], the “% CYP1B1 substrate inhibition accuracy” value is reported as 95%. Also, at CYP1B1 [4], the inhibition at 0.5 mmol dm^−3 came out at 92.13 ± 0.56%.

For the molecule `C=C[C@H]1C[N@@]2CC[C@H]1C[C@@H]2[C@@H](O)c1ccnc2ccc(OC)cc12` [quinidine], the “% CYP1B1 substrate inhibition accuracy” value on CYP1B1 [3] was 64%. The inhibition at 0.5 mmol dm^−3 at CYP1B1 [4] was determined as 1.63 ± 0.34%.

As for `Oc1ccc(C=Cc2cc(O)cc(O)c2)cc1` [resveratrol], at CYP1B1 [3], the “% CYP1B1 substrate inhibition accuracy” value is 95%. Moreover, on CYP1B1 [4], the inhibition at 0.5 mmol dm^−3 was found to be 72.34 ± 0.56%.

Consider `Nc1ccc(S(=O)(=O)Nc2ccnn2-c2ccccc2)cc1` [sulfaphenazole], for which the “% CYP1B1 substrate inhibition accuracy” value on CYP1B1 [3] is given as 68%. The molecule further displayed an inhibition at 0.5 mmol dm^−3 against CYP1B1 [4] of 2.89 ± 0.15%.

Source of the values: patent US20120302748A1, “TREATMENT OR PROPHYLAXIS OF PROLIFERATIVE CONDITIONS” (THE UNIVERSITY COURT OF THE UNIVERSITY OF DUNDEE, priority 2009, published 2012).
